Reference: patent US20050159345A1 (Boehringer Ingelheim International GmbH, priority 2002, published 2005)
Read-outs that look alike come from different tables or passages of the source.

Legend:
[1] = target: T1, HCV 2a-c NS3-NS4A heterodimer protein (UniProt P26660); assay: In vitro HCV NS3 protease assay (fluorogenic depsipeptide), genotype 2a-c; assay type: biochemical, HCV genotype 2a-c; conditions: read-out: IC50 HCV-2a-c; HCV 2a-c NS3-NS4A protease
T1 sequence (P26660 1031-1661): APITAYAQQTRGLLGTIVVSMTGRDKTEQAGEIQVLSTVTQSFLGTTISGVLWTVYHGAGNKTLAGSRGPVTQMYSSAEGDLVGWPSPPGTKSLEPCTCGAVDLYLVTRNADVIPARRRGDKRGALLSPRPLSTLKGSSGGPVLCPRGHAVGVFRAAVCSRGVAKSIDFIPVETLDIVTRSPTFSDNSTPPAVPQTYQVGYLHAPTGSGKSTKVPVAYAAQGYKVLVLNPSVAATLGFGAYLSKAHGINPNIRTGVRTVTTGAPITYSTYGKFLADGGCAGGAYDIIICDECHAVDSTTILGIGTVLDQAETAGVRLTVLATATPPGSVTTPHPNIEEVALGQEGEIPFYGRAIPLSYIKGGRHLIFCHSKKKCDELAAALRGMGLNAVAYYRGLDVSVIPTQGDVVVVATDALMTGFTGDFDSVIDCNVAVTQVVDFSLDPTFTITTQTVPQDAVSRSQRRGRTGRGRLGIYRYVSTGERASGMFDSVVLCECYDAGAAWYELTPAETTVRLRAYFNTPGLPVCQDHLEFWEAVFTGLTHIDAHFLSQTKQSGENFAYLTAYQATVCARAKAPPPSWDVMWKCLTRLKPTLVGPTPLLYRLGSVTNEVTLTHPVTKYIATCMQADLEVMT
Procedure: The fluorogenic depsipeptide substrate used to assess inhibition of protease activity of the HCV 1a, 1b, 2b, 2a-c and 3a NS3-NS4A heterodimer protein was anthranilyl-DDIVPAbu[C(O)—O]-AMY(3-NO2)TW—OH (SEQ ID No.10). This substrate is cleaved between the aminobutyric (Abu) and the alanine residues. The sequence DDIVPAbu-AMYTW (SEQ ID No.11) is derived from the sequence DDIVPC—SMSYTW (SEQ ID No.12) corresponding to the NS5A/NS5B natural cleavage site. […] The protease activity was assayed in 50 mM Tris-HCl, pH 8.0, 0.25M sodium citrate, 0.01% n-dodecyl-β-D-maltoside, 1 mM TCEP. The assay was performed in a Microfluor®2 White U-Bottom Microtiter® plate. 5 μM of the substrate and various concentrations of the test compound were incubated with 1.5 nM of HCV 1a or 1b NS3-NS4A heterodimer protein for 45 minutes at 23° C. under gentle agitation. […] The reaction was terminated by the addition of a 1M 2-[N-morpholino]ethanesulfonic acid solution at pH 5.8.
The fluorescence was monitored using the BMG POLARstar Galaxy 96-well plate reader with an excitation filter of 320 nm, and an emission filter of 405 nm. The level of inhibition (% inhibition) of each well containing test compound was calculated with the following equation (FU=fluorescence unit): [formula]
The calculated % inhibition values were then used to determine IC50, slope factor (n) and maximum inhibition (Imax) by the non-linear regression routine NLIN procedure of SAS using the following equation: [formula] Inhibition Constant (Ki) Determination and mode of Inhibition

[2] = target: T2, HCV 1a NS3-NS4A heterodimer protein (Hepatitis C virus genotype 1a, UniProt P27958); assay: In vitro HCV NS3 protease assay (fluorogenic depsipeptide), genotype 1a; assay type: biochemical
T2 construct: Co-purification of mature NS3 and NS4A protein complex was verified by Western blot analysis; made in house; host or cells: Sf21 insect cells, recombinant baculovirus (pFastBac HTa)
Text: (§1) For production of the HCV genotype 1b NS3-NS4A heterodimer protein, a full-length HCV cDNA was cloned by RT-PCR using RNA extracted from the serum of an HCV genotype 1b infected individual (provided by Dr. Bernard Willems, Hôpital St-Luc, Montréal, Canada). […] For HCV genotype 1a, the DNA encoding NS3-NS4A heterodimer protein was PCR-amplified (forward primer: 5′[sequence]3′ (SEQ ID No.3); reverse primer: 5′[sequence]3′ (SEQ ID No.4)) from the HCV genotype la strain H77 (provided by ViroPharma Inc., Exton, Pa., U.S.) and subcloned as described above. The cloning into the pFastBac™ HTa baculovirus expression vector generated a recombinant fusion protein containing an additional N-terminal 28 residues that comprised a hexahistidine tag and a rTEV protease cleavage site. The Bac-to-Bac™ baculovirus expression system (Gibco/BRL) was used to produce the recombinant baculovirus for protein expression.
(§2) His-tagged NS3-NS4A heterodimer protease was expressed by infecting Sf21 insect cells (Invitrogen) at a density of 10^6 cells/mL with the recombinant baculovirus at a multiplicity of infection of 0.1-0.2 at 27° C. The infected culture was harvested 48 to 64 h later by centrifugation at 4° C. The cell pellet was homogenized in 50 mM sodium phosphate, pH 7.5, 40% glycerol (w/v), 2 mM β-mercaptoethanol. His-NS3-NS4A heterodimer protease was then extracted from the cell lysate with 1.5% NP-40, 0.5% Triton X-100, 0.5M NaCl, and a DNase treatment. […]

[3] = target: T3, HCV 1b NS3-NS4A heterodimer protein (UniProt P26662); assay: In vitro HCV NS3 protease assay (fluorogenic depsipeptide), genotype 1b; assay type: biochemical, HCV genotype 1b; conditions: read-out: IC50 HCV-1b; HCV 1b NS3-NS4A protease
T3 construct: fused on or other part: 28 extra N-terminal residues with a hexahistidine tag and an rTEV cleavage site
Text: as §1, §2

HCV replicon 1a = assay: Cell-based HCV 1a RNA replicon assay; conditions: Hepatitis C virus, 72 h; Huh-7-derived replicon cells, 3 day incubation, HCV RNA by RT-PCR
Procedure: These cells were used to establish a sensitive HCV RNA replication cell-based assay for testing candidate test compounds.
Huh7 cells that stably maintain a subgenomic HCV replicon were established as previously described (Lohman et al. 1999; WO 02/052015). The cells were seeded into a 96 well cell culture cluster at 1×10^4 cells per well in DMEM complemented with 10% FBS, PenStrep (Life Technologies) and […] Geneticin. Cells were incubated in a 5% CO2 incubator at 37° C. until addition of various concentrations of the test compound.
The test compound was prepared for use in the assay as follows. The test compound in 100% DMSO was added diluted in assay Medium for a final DMSO concentration of 0.5% and the solution was sonicated for 15 min and filtered through a […] Millipore Filter Unit. Serial dilutions of the test compounds were prepared using Assay Medium (containing 0.5% DMSO).
Cell culture medium was aspirated from the 96-well plate containing the cells and the appropriate dilution of test compound in assay medium was transferred to independent wells of the cell culture plate which was incubated at 37° with 5% CO2.
Following a 3 day-incubation period, the cells were washed with PBS and total cellular RNA was extracted with the RNeasy Mini Kit® and Qiashredder® from Qiagen. RNA from each well was eluted in 50 μL of H2O. RNA was quantified by optical density at 260 nm on the Cary 1E® UV-Visible spectrophotometer. The HCV RNA replicon copy number was evaluated by real-time RT-PCR with the Abi Prism® 7700 Sequence Detection System. The TAQMAN E® RT-PCR kit provides a system for the detection and analysis of RNA. Direct detection of the reverse transcription polymerase chain reaction (RT-PCR) product with no downstream processing was accomplished by monitoring the increase in fluorescence of a dye-labeled DNA probe. The nucleotide sequence of both primers and probe was located in the 5′ region of the HCV genome. The replicon copy number was then evaluated using a standard curve made with known amounts of replicon copy (supplemented with 50 ng of wild type Huh-7 RNA) assayed in the same reaction mix. The following thermal cycle parameters were used for the RT-PCR reaction on the ABI Prism® 7700 Sequence Detection System. Conditions were optimized for HCV detection. Quantification is based on the threshold cycle, where the amplification plot crosses a defined fluorescence threshold. Comparison of the threshold cycles provides a highly sensitive measure of relative template concentration in different samples. Monitoring during early cycles, when PCR fidelity is at its highest, provides precise data for accurate quantification. The relative template concentration can be converted to real numbers by using the standard curve of HCV with known number of copy.
The level of inhibition (% inhibition) of each well containing test compound was calculated with the following equation (CN═HCV Replicon copy number): [formula]
The calculated % inhibition values were then used to determine EC50, slope factor (n) and maximum inhibition (Imax) by the non-linear regression routine NLIN procedure of SAS using the following equation: [formula]

[4] = HCV 1a NS3-NS4A protease, read-out: IC50 HCV-1a

T3 sequence (P26662 1027-1657, one chain of several): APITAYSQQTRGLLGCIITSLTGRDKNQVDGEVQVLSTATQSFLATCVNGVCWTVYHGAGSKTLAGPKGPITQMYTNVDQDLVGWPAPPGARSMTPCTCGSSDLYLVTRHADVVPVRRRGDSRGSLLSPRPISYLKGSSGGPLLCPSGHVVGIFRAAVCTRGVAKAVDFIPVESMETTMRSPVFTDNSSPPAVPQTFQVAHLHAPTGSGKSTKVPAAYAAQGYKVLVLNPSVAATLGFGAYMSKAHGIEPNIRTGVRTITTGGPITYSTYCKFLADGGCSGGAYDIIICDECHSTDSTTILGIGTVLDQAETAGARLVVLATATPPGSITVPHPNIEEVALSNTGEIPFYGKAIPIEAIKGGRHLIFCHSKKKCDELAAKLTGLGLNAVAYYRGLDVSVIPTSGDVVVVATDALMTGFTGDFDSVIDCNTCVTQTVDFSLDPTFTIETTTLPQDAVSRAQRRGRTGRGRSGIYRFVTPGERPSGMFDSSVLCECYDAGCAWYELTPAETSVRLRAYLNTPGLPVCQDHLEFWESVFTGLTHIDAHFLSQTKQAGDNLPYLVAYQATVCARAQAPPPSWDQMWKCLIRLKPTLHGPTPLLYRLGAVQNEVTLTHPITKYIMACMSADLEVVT
T2 sequence (P27958 1027-1657): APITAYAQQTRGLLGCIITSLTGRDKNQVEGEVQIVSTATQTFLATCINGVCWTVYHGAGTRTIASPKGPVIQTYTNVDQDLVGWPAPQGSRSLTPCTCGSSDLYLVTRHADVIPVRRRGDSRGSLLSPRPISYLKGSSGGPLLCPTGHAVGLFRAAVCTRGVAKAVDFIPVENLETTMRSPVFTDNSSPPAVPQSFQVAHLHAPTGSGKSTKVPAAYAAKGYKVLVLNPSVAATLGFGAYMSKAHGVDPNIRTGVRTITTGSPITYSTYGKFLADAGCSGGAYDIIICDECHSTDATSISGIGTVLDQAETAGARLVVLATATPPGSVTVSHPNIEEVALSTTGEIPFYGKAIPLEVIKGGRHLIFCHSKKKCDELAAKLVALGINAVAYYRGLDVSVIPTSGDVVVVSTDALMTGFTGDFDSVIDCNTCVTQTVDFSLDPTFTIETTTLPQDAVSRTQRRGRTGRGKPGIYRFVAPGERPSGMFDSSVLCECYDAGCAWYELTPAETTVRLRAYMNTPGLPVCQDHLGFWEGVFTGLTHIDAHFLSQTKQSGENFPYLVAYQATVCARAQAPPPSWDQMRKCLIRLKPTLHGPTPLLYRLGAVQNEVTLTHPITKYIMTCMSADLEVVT
T2 sequence (P27958 1658-1711): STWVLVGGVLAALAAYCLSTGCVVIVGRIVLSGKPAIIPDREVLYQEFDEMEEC

Row | Compound | IC50 [1] [nM] | IC50 [2, 4] [nM] | IC50 [3] [nM] | EC50 (HCV replicon 1a) [nM] | IC50 [2] [nM]
1 | COc1ccc2c(O[C@@H]3C[C@H]4C(=O)N[C@]5(C(=O)O)CC5/C=C\CCCCC[C@H](NC(=O)OC(C)(C)C)C(=O)N4C3)cc(-c3csc(NC(C)=O)n3)nc2c1 (stereo partly drawn) [III] | 490 | 4.1 | 4.2 | 4.5 | 
2 | COc1ccc2c(O[C@@H]3C[C@H]4C(=O)N[C@]5(C(=O)O)CC5/C=C\CCCCC[C@H](NC(=O)OC5CCCC5)C(=O)N4C3)cc(-c3csc(NC(C)C)n3)nc2c1 (stereo partly drawn) [IV] | 200 |  | 3.4 | 2.1 | 4.3
3 | COc1ccc2c(O[C@@H]3C[C@H]4C(=O)N[C@]5(C(=O)O)CC5/C=C\CCCCC[C@H](NC(=O)OC(C)(C)C)C(=O)N4C3)cc(-c3ccccc3)nc2c1 (stereo partly drawn) [II] | 680 | 7.8 | 8.9 | 34 | 
